Experiment [1] concerns BEAS-2B cells infected with HCoV-OC43. In words: apoptosis by TUNEL staining in HCoV-OC43 infected BEAS-2B cells. The experiment is classed as cell-based, human. Conditions: for apoptosis (TUNEL positive cells): BEAS-2B, 48 h treatment from 24 h post infection, FIG. 1B; for effectiveness in the in vitro screening to confirm biological activity: in vitro screening as described in the patent. The protocol:
(§1) Cell Culture: BEAS-2B cells (an epithelial cell line that was isolated from normal human bronchial epithelium) were purchased from the American Type Culture Collection (ATCC) through Cedarlane Corp., Burlington, Canada. The cells were cultured in bronchial epithelial cell growth medium (Lonza/Clonetics Corporation, Basel, Switzerland) supplemented with 10% fetal bovine serum (FBS). Cells were cultured at 37° C. in a humidified incubator balanced with 5% CO2.
(§2) Compound solution preparation for in vitro experiments: Candidate compounds were dissolved in anhydrous Dimethyl Sulfoxide (DMSO) (available from Sigma Aldrich), filtered by a 0.20 μm PTFE filter and added to culture medium to make a working solution at designated concentrations. Final concentration of DMSO in culture medium was ≤0.1%. Same volume of DMSO was used as control.
(§3) An apoptosis study was conducted (see FIGS. 1A-1C). HCoV-OC43 infection (referred to as “OC43” herein) see Archer, S. L., et al., Redox Biology ([…]) 58:102508) was performed in BEAS-2B cells (an epithelial cell line that was isolated from normal human bronchial epithelium, available from ATCC through Cedarlane Corp., Burlington, Canada). Cells were counted and then seeded in a cell culture plate overnight. The cell culture media was replaced with serum-free media containing 3 focus-forming units (ffu)/cell of OC43 virus. The cells were cultured in this inoculum for 2 hours. Then the inoculum was replaced with complete growth medium and incubated at 33° C. until 72 hours post-infection (the time of the experimental endpoint). Cells were then treated for 48 hours with AIF Inhibitor compounds starting at 24 hours post infection. Concentration of compounds: AIF inhibitor 1, AIF inhibitor 3, and AIF inhibitor 6 were used at a concentration of 10 uM; Drpitor1a, which is a Drp1 inhibitor and is not an AIF inhibitor) was used at a concentration of 1 uM. Cell viability was measured by cell count (see FIG. 1A). Apoptotic cells were measured by TUNEL staining (see FIG. 1B) (see Archer, S. L., et al., Redox Biol. (2022) 58:102508). Cells were dual stained with Click-iT® Plus TUNEL (available from Thermo Fisher, Waltham, MA, USA) and 4′,6-diamidino-2-phenylindole (DAPI) (available from Thermo Fisher, Waltham, MA, USA). Images were captured on a Leica SP8 confocal microscope using a 63×1.4 NA objective and a white light laser at 488 nm. Emission acquisition gating was 510-530 nm (for TUNEL). A 405 nm laser diode was used for DAPI excitation and the emission acquisition gate was set at 420-480 nm. Viral loads were quantified using qRT-PCR (see FIG. 1C). mRNA level of HCoV-OC43 N protein was measured and compared among treatment groups.

A further experiment concerns HCoV-OC43. In words: viral load by qRT-PCR of HCoV-OC43 N protein mRNA in BEAS-2B cells. It is filed as cell-based, Human coronavirus OC43. Particulars: 48 h treatment from 24 h post infection, FIG. 1C. The protocol:
as §1, §2, §3
A general note: In qPCR the cycle at which signal appears reflects the starting amount.

Experiment [2] has as its system murine hepatitis virus-1 (MHV-1). The experiment can be described thus: murine model of MHV-1 pneumonia (lung photographs, micro-CT, hemodynamics). The experiment is classed as in vivo. Particulars: 1 mg/kg QD IP 5 days. How it is done:
Five-week-old A/J mice (Jackson Labs, Bar Harbour, Maine) were given an intranasal inoculation of either MHV-1 (5000 PFU/17 μl) or an identical volume of saline as control. AIF inhibitor 6 was administered for 5 days (1 mg/kg, QD, IP) post infection. At day 5 post-infection, mice were anesthetized with a single IP injection of ketamine/xylazine (150 mg/kg and 10 mg/kg, respectively). O2 saturation was measured while mice breathed room air, following which they were intubated and mechanically ventilated, which increased their O2 saturation. Transcutaneous O2 saturation was monitored during the procedure using a MouseSTAT® Jr. rodent pulse oximeter attached to the rear paw (Kent Scientific Corporation, Torrington, CT, USA). Right heart catheterization (RHC) was performed using a 1.2F Scisense pressure-volume catheter (Transonic Systems Inc., Ithaca, NY, USA) via a closed chest approach. Mice were ventilated with normoxic gas (room air, 20.6% O2) for 10 minutes, followed by hypoxic gas for 10 minutes (10% 02 balanced with N2) and then followed by normoxic gas (room air, 20.6% O2) for 10 minutes. This regimen was designed to elicit hypoxic pulmonary vasoconstriction (HPV), a normal physiologic response of the pulmonary arteries to airway hypoxia.
Referring to FIGS. 2A-2B, photographs and micro-CT images are shown from a study probing the effect of AIF Inhibitors on murine lung that had been exposed to MHV-1. Lungs were fixed with 4% formaldehyde (PFA) and perfused with 25% barium sulfate via the trachea and imaged by microCT. The micro-CT images were acquired using a VECTor4CT pre-clinical scanner (MILabs B.V., Utrecht, Netherlands) equipped with a cone beam X-ray CT system. The measurements used an acceleration voltage of 50 kVp and X-ray tube current of 430 μA in the ultra-focus mode, allowing acquisition of 3,600 projections with exposure time 40 ms, resulting in a 25 μm resolution. Tomographic CT images of FIG. 2B were compiled using MILabs reconstruction software. For quantification and segmentation, CT image data was manually processed using PMOD 3.9 software (PMOD Technologies Ltd., Zurich, Switzerland).

Experiment [3] relates to BEAS-2B cells infected with HCoV-OC43. In words: cell viability by cell count in HCoV-OC43 infected BEAS-2B cells. It is filed as cell-based, human. Particulars: 1 uM, 48 h treatment from 24 h post infection, endpoint 72 h, FIG. 1A. How it is done: as §1, §2
An apoptosis study was conducted (see FIGS. 1A-1C). […] Cells were counted and then seeded in a cell culture plate overnight. […] Cell viability was measured by cell count (see FIG. 1A). Apoptotic cells were measured by TUNEL staining (see FIG. 1B) (see Archer, S. L., et al., Redox Biol. (2022) 58:102508). […] Viral loads were quantified using qRT-PCR (see FIG. 1C). mRNA level of HCoV-OC43 N protein was measured and compared among treatment groups.

Setting [4] is: MHV-1 infected mice, vs vehicle, FIG. 2A.

Data on 4 compounds can be found in patent US20250228853A1, “Apoptosis Inhibitors” (Queen's University at Kingston, priority 2024, published 2025).

Each structure is given as a SMILES string. “Also recorded” adds a separate entry of the source.

Regarding `CN1C(CC2=NC(C3CCOCC3)CC(=O)N2)=NCc2ccccc21` (stereo not shown) [Compound 1, 2-[(1-methyl-1,4-dihydroquinazolin-2-yl)methyl)-6-(tetrahydro-2H-pyran-4-yl)-5,6-dihydropyrimidin-4 (3H)-one], in experiment [1] (HCoV-OC43, 10 uM), the “apoptosis (TUNEL positive cells)” value was “reduced”. Also, the “effectiveness in the in vitro screening to confirm biological activity” value (shortened to “effectiveness … to confirm biological activity”) in experiment [1] is reported as “particularly effective”. The “viral load (Relative N expression, Nucleocapsid mRNA)” value in the experiment with HCoV-OC43 (HCoV-OC43, 10 uM) was “reduced viral load”.

`O=C1c2ccccc2C(=O)N1CCc1c[nH]c2ccc(OCc3ccccc3)cc12` [Compound 6, 2-(2-(5-(benzyloxy)-1H-indol-3-yl)ethyl) isoindoline-1,3-dione]: the “apoptosis (TUNEL positive cells)” value in experiment [1] (HCoV-OC43, 10 uM) is “reduced”. For the same compound, the “effectiveness … to confirm biological activity” value in experiment [1] is given as “particularly effective”. Further, in the experiment on HCoV-OC43 (HCoV-OC43, 10 uM), the “viral load (Relative N expression, Nucleocapsid mRNA)” value is “lowers the viral titer; also recorded: reduced viral load”. In experiment [2] (setting [4]), the lung edema result is given as “reduced lung edema” and the “structural damage of the lungs” value is “significantly less structural damage”. Further, the “lung perfusion (micro-CT, barium contrast)” value in experiment [2] (MHV-1 infected mice, vs vehicle, FIG. 2B) is on record as “increased lung perfusion”. The “hypoxic pulmonary vasoconstriction (rise in RVSP with hypoxia)” value in experiment [2] (MHV-1 infected mouse, 10% O2 for 10 min, one mouse per group, FIG. 2C) is given as “restored hypoxic pulmonary vasoconstriction”.

`CCN(CC)C(=O)c1nc2ccccc2cc1C(=O)c1cc(=O)[nH]c2ccccc12` [Compound 3, N,N-diethyl-3-(2-oxo-1,2-dihydroquinoline-4-carbonyl) quinoline-2-carboxamide]: in experiment [1] (HCoV-OC43, 10 uM), the “apoptosis (TUNEL positive cells)” value was “reduced”. In experiment [1], the “effectiveness … to confirm biological activity” value is recorded as “particularly effective”. Further, the “viral load (Relative N expression, Nucleocapsid mRNA)” value with HCoV-OC43 (HCoV-OC43, 10 uM) was “reduced viral load”.

Consider `O=C1c2ccncc2C(=O)c2c1[nH]c1ccccc21` [Drpitor1a, reference compound], for which, in experiment [1] (HCoV-OC43, 1 uM), the “apoptosis (TUNEL positive cells)” value was “reduced”. Besides, in the experiment on HCoV-OC43 (HCoV-OC43, 1 uM), the “viral load (Relative N expression, Nucleocapsid mRNA)” value is “reduced viral load”. In addition, in experiment [3], the “cell numbers (cell count) after HCoV-OC43 infection” value was “reversed”.
